Reference: patent US20240417406A1, “NITROGEN-CONTAINING TRICYCLIC COMPOUND AND PHARMACEUTICAL USE THEREOF” (JAPAN TOBACCO INC., priority 2021, published 2024)

target: human PDHK2 (hPDHK2) (Homo sapiens (Human), UniProt Q15119); assay: Inhibitory action of PDHK2 activity (PDH/hPDHK2 complex, residual PDH activity by NADH absorbance at 340 nm); type: biochemical; conditions: FLAG-tagged recombinant hPDHK2 with porcine heart PDH complex; PDHK reaction 45 min at room temperature
Procedure, shortened: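 N-FLAG hPDHK2 from E. coli (0.5 μg/mL) preincubated overnight at 4 °C with porcine heart PDH complex (0.025 U/mL), pH 7.0 MOPS buffer. Pyruvate, CoA, NAD and TPP substrates added, 90 min at room temperature. Residual PDH activity from NADH A340 change, corrected for compound effect on PDH alone; IC50 from inhibition %.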

Structure (SMILES)	IC50 [nM]
C[C@H]1Cn2nc(C34CCC(CO)(CC3)CO4)cc2-c2cnc([C@@](C)(O)C(F)(F)F)n21 [Example 94]	49.5
C[C@H]1Cn2nc(OCC34CC(C#N)(C3)C4)cc2-c2cnc([C@@](C)(O)C(F)(F)F)n21 [Example 97, 3-((((S)-5-methyl-3-((R)-1,1,1-trifluoro-2-hydroxypropan-2-yl)-5,6-dihydroimidazo[1,5-a]pyrazolo[5,1-c]pyrazin-9-yl)oxy)methyl)bicyclo[1.1.1]pentane-1-carbonitrile]	8.8

Second part, the compound after the results:

IC50 [nM]	Structure (SMILES)
9.1	C[C@H]1Cn2nc(C34CCC(C(C)(C)O)(CC3)CO4)cc2-c2cnc([C@@](C)(O)C(F)(F)F)n21 [Example 98, (R)-1,1,1-trifluoro-2-((S)-9-(4-(2-hydroxypropan-2-yl)-2-oxabicyclo[2.2.2]octan-1-yl)-5-methyl-5,6-dihydroimidazo[1,5-a]pyrazolo[5,1-c]pyrazin-3-yl)propan-2-ol]
11.1	C[C@H]1Cn2nc(C(F)(F)F)cc2-c2cnnc([C@@](C)(O)C(F)(F)F)c21 [Example 100, (R)-1,1,1-trifluoro-2-((R)-5-methyl-9-(trifluoromethyl)-5,6-dihydropyrazolo[1′,5′:1,2]pyrido[3,4-d]pyridazin-4-yl)propan-2-ol]
10	C[C@H]1Cc2nn([C@H]3CC[C@](C)(O)CC3)cc2-c2onc([C@@](C)(O)C(F)(F)F)c21 [Example 105, (1S,4r)-1-methyl-4-((S)-4-methyl-3-((R)-1,1,1-trifluoro-2-hydroxypropan-2-yl)-4,5-dihydro-7H-isoxazolo[5,4-e]indazol-7-yl)cyclohexan-1-ol]
